In PMC8035703, “Effect of Synchronous Versus Sequential Regimens on the Pharmacokinetics and Biodistribution of Regorafenib with Irradiation” (Pharmaceutics, 2021):
Where two headings read alike, the source gives them in different places.

What was measured:
[1] = Hepatic and renal functions (GPT, creatinine) in rats; assay type: in vivo, Sprague-Dawley rats; conditions: rat
Protocol: Glutamic-pyruvic transaminase (GPT) and […] were measured to check the influence of different modalities on hepatic function and renal function by a standard colorimetric method, using a Synchron LX20 spectrophotometer (Beckman Coulter) and manufacturer-supplied reagents.

HCC patients = test system: HCC patients; parameters: method as in PMID 29704513; conditions: patients treated with sorafenib followed by regorafenib; cited from earlier work
Huh-7 cells [2] = test: Morphological observation (Liu's stain); assay type: cell-based, human; conditions: regorafenib 0-20 μM with RT
Protocol: Huh-7 cells were treated with regorafenib at concentrations of 0, 5, 10 and 20 μmol/L (μM) in the concurrent and sequential groups with different RT doses. Then, the cells were centrifuged by using Cytospin (Shandon Inc., Pittsburgh, PA). Liu’s A solution and Liu’s B solution were used on glass slides for 45 and 90 s, respectively. Then, a light microscope (Olympus, Tokyo, Japan) was used to observe the Huh-7 cells.

Huh-7 cells [3] = test: Cell viability assay (MTT), Huh-7; assay type: cell-based, human; conditions: for IC50 / viability at 5 µM / viability at 10 µM / viability at 20 µM: Homo sapiens; for IC50: MTT after 24 h, read-out: IC50 (estimated concentration at which 50% of cells were killed); for viability at 5 µM: Huh-7, regorafenib 5 μM; for viability at 10 µM: Huh-7, regorafenib 10 μM; for viability at 20 µM: Huh-7, regorafenib 20 μM
Protocol: Human hepatoma Huh-7 and Hep G2 cell lines kindly provided by Professor Hu (Taipei Veterans General Hospital, Taiwan) were plated into 96-well plates (1 × 10^3 per well) with serum-containing medium (100 μL) for 1 day. Regorafenib at concentrations of 0, 5, 10 and 20 μmol/L (μM) was added to the plates. Then, the study groups were designed: the concurrent group (1 h after irradiation) or sequential group (24 h after irradiation) with sham RT (RT0 Gy), 2 Gy (RT2 Gy) and 9 Gy (RT9 Gy). Additionally, after 24 h, 20 μL of 5 mg/mL MTT was added to the plates and incubated for 3 h. The supernatant was discarded, the precipitate was dissolved in 200 μL DMSO, and the plates were read with a microplate reader at 570 nm and a reference wavelength of 630 nm.

Q: For `CNC(=O)c1cc(Oc2ccc(NC(=O)Nc3ccc(Cl)c(C(F)(F)F)c3)c(F)c2)ccn1` [regorafenib, Regorafenib], which “Creatinine at 240 min” value ([1]; concurrent RT2 Gy × 1 f'x) is on record?
A: Its value is 0.25 ± 0.06 mg/dL.

Q: What about the “Glutamate pyruvate transaminase at 240 min” value ([1]; concurrent RT2 Gy × 1 f'x) of the same compound?
A: Its value is 31.8 ± 5.3 UI.

Q: What about the “Creatinine at 240 min” value ([1]; concurrent RT9 Gy × 1 f'x) of the same compound?
A: The value was 0.21 ± 0.02 mg/dL.

Q: And the “Glutamate pyruvate transaminase at 240 min” value ([1]; concurrent RT9 Gy × 1 f'x)?
A: Its value is 33.5 ± 8.8 UI.

Q: What about the “Glutamate pyruvate transaminase and creatinine, regorafenib with vs without RT” value ([1]; different regimens and doses) of the same compound?
A: The value was “no significant differences”.

Q: What about the “Creatinine at 240 min” value ([1]; regorafenib-only) of the same compound?
A: The value was 0.23 ± 0.04 mg/dL.

Q: And the “Glutamate pyruvate transaminase at 240 min” value ([1]; regorafenib-only)?
A: The value was 36.3 ± 15.0 UI.

Q: What about the “Creatinine at 240 min” value ([1]; sequential RT2 Gy × 1 f'x) of the same compound?
A: Its value is 0.22 ± 0.04 mg/dL.

Q: And the “Glutamate pyruvate transaminase at 240 min” value ([1]; sequential RT2 Gy × 1 f'x)?
A: The value was 30.5 ± 6.0 UI.

Q: And the “Creatinine at 240 min” value ([1]; sequential RT9 Gy × 1 f'x)?
A: The value was 0.25 ± 0.04 mg/dL.

Q: And the “Glutamate pyruvate transaminase at 240 min” value ([1]; sequential RT9 Gy × 1 f'x)?
A: The value was 33.7 ± 5.2 UI.

Q: And the Median overall survival (HCC patients)?
A: The Median overall survival was 26 months.

Q: What about the “Morphological changes (in words)” value (Huh-7 cells [2]) of the same compound?
A: The value was “Cell shrinkage and pyknosis occurred in a dose-dependent manner”.

Q: What about the “Effect on viability of Huh-7 cells (in words)” value (Huh-7 cells [3]; 0-20 μM) of the same compound?
A: The value was “inhibited the viability of Huh-7 cells in a dose-dependent manner”.

Q: And the IC50 (Huh-7 cells [3]; Huh-7, 24 h, Huh-7, RT0 Gy, S (regorafenib added 24 h following RT))?
A: Its IC50 is 12.8 µM.

Q: What about the IC50 (Huh-7 cells [3]; Huh-7, 24 h, Huh-7, RT2 Gy, S (regorafenib added 24 h following RT)) of the same compound?
A: Its IC50 is 12.1 µM.

Q: What about the IC50 (Huh-7 cells [3]; Huh-7, 24 h, Huh-7, RT9 Gy, S (regorafenib added 24 h following RT)) of the same compound?
A: Its IC50 is 15.2 µM.

Q: And the IC50 (Huh-7 cells [3]; Huh-7, Huh-7, RT0 Gy, C (regorafenib added 1 h following RT))?
A: Its IC50 is 6.56 µM.

Q: And the IC50 (Huh-7 cells [3]; Huh-7, Huh-7, RT2 Gy, C (regorafenib added 1 h following RT))?
A: The IC50 was 6.38 µM.

Q: And the IC50 (Huh-7 cells [3]; Huh-7, Huh-7, RT9 Gy, C (regorafenib added 1 h following RT))?
A: The IC50 was 6.36 µM.

Q: And the viability at 5 µM (Huh-7 cells [3]; Huh-7, RT0 Gy, C)?
A: The viability at 5 µM was 60.9 ± 1.8%.

Q: And the viability at 5 µM (Huh-7 cells [3]; Huh-7, RT0 Gy, S)?
A: Its viability at 5 µM is 72.6 ± 1%.

Q: And the viability at 5 µM (Huh-7 cells [3]; Huh-7, RT2 Gy, C)?
A: Its viability at 5 µM is 59.8 ± 5.5%.

Q: And the viability at 5 µM (Huh-7 cells [3]; Huh-7, RT2 Gy, S)?
A: The viability at 5 µM was 59.5 ± 2.7%.

Q: And the viability at 5 µM (Huh-7 cells [3]; Huh-7, RT9 Gy, C)?
A: Its viability at 5 µM is 62.3 ± 14.1%.

Q: What about the viability at 5 µM (Huh-7 cells [3]; Huh-7, RT9 Gy, S) of the same compound?
A: The viability at 5 µM was 60.2 ± 5.6%.

Q: What about the viability at 10 µM (Huh-7 cells [3]; Huh-7, RT0 Gy, C) of the same compound?
A: Its viability at 10 µM is 35.1 ± 1.6%.

Q: What about the viability at 10 µM (Huh-7 cells [3]; Huh-7, RT0 Gy, S) of the same compound?
A: Its viability at 10 µM is 55.2 ± 1.2%.

Q: And the viability at 10 µM (Huh-7 cells [3]; Huh-7, RT2 Gy, C)?
A: Its viability at 10 µM is 33.9 ± 2.7%.

Q: What about the viability at 10 µM (Huh-7 cells [3]; Huh-7, RT2 Gy, S) of the same compound?
A: Its viability at 10 µM is 46 ± 2.9%.

Q: And the viability at 10 µM (Huh-7 cells [3]; Huh-7, RT9 Gy, C)?
A: The viability at 10 µM was 34.3 ± 5.3%.

Q: What about the viability at 10 µM (Huh-7 cells [3]; Huh-7, RT9 Gy, S) of the same compound?
A: The viability at 10 µM was 47.6 ± 3%.

Q: What about the viability at 20 µM (Huh-7 cells [3]; Huh-7, RT0 Gy, C) of the same compound?
A: The viability at 20 µM was 15.4 ± 1%.

Q: And the viability at 20 µM (Huh-7 cells [3]; Huh-7, RT0 Gy, S)?
A: The viability at 20 µM was 41.4 ± 0.4%.

Q: And the viability at 20 µM (Huh-7 cells [3]; Huh-7, RT2 Gy, C)?
A: Its viability at 20 µM is 14.4 ± 0.8%.

Q: What about the viability at 20 µM (Huh-7 cells [3]; Huh-7, RT2 Gy, S) of the same compound?
A: The viability at 20 µM was 36.3 ± 1.4%.

Q: What about the viability at 20 µM (Huh-7 cells [3]; Huh-7, RT9 Gy, C) of the same compound?
A: Its viability at 20 µM is 14.1 ± 0.7%.

Q: And the viability at 20 µM (Huh-7 cells [3]; Huh-7, RT9 Gy, S)?
A: Its viability at 20 µM is 41.1 ± 1.7%.

Q: What about the “Viability: concurrent regorafenib with RT2 Gy and RT9 Gy vs regorafenib only (in words)” value (Huh-7 cells [3]; Huh-7 and Hep G2) of the same compound?
A: The value was “no synergistic effects”.

Q: And the “Viability with regorafenib following RT2 Gy and RT9 Gy (in words)” value (Huh-7 cells [3]; Huh-7 and Hep G2, regorafenib 10 and 20 μM, sequential)?
A: Its value is “higher than the regorafenib-only and concurrent regimen”.
